Results reported in article PMC9295256 (Journal of medicinal chemistry, 2021).
Square brackets hold non-standard residues; d marks the D form. Peptide text beside a SMILES is read from it. * marks the point of attachment. Boc = CC(C)(C)OC(=O)*

Target: recombinant rat Nln (Rattus norvegicus, UniProt P42676)
Test: Nln activation, continuous quenched fluorescence substrate
Format: biochemical
Conditions: not given

Chain of recombinant rat Nln (P42676 38-704): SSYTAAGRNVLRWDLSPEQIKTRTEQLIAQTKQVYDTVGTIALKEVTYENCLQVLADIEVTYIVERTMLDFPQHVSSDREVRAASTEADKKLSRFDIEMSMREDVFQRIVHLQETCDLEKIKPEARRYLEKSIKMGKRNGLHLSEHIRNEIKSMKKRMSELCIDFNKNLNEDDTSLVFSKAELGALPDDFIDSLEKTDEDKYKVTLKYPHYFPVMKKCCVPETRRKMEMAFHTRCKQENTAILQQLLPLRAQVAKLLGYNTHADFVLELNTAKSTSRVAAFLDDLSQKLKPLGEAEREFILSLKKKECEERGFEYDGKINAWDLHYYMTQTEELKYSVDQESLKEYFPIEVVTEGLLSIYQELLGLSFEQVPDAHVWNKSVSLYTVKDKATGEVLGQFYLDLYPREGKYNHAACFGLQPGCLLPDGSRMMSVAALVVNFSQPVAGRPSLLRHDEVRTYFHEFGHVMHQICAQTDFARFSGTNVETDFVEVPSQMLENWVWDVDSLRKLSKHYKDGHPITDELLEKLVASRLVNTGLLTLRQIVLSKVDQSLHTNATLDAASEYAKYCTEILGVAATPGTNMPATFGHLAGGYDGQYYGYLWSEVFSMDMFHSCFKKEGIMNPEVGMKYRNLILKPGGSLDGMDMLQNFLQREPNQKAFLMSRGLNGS

SMILES	Amax, maximum % activation achieved (95% CI)	Nln activation, result in words
N[C@@H](Cc1cnc[nH]1)C(=O)N[C@@H](Cc1ccc(O)cc1)C(=O)O [Compound 1, His–Tyr] (H-His-Tyr-OH)	465.2 (440.2 to 492.3) %	–
N[C@@H](Cc1c[nH]cn1)C(=O)N[C@@H](Cc1c[nH]cn1)C(=O)O [Compound 2, His–His]	498.1 (481 to 516.5) %	–
N[C@@H](Cc1cnc[nH]1)C(=O)N[C@@H](Cc1ccccc1)C(=O)O [Compound 3, His–Phe] (H-His-Phe-OH)	442.3 (418.8 to 467.6) %	–
N[C@@H](Cc1ccc(O)cc1)C(=O)N[C@H](Cc1c[nH]cn1)C(=O)O [Compound 4a, H-Tyr-His-OH]	–	complete amelioration of Nln activation
CC(C)(C)OC(=O)N[C@@H](Cc1ccc(O)cc1)C(=O)N[C@H](Cc1ccccc1)C(=O)O [Compound 4b] (Boc-Tyr-[dF]-OH)	–	inactive
N[C@@H](Cc1c[nH]cn1)C(=O)NCCc1ccc(C(F)(F)F)cc1 [Compound 4k, (S)-2-Amino-3-(1H-imidazol-4-yl)-N-(4-(trifluoromethyl)-phenethyl)propanamide]	299.4 (283.9 to 316.2) %	–
N[C@H](Cc1c[nH]cn1)C(=O)NCCc1ccc(C(F)(F)F)cc1 [Compound 4l, (R)-2-Amino-3-(1H-imidazol-4-yl)-N-(4-(trifluoromethyl)-phenethyl)propanamide]	330.1 (313.9 to 347.7) %	–
N[C@@H](Cc1c[nH]cn1)C(=O)NCCc1ccc([N+](=O)[O-])cc1 [Compound 4o, (S)-2-Amino-3-(1H-imidazol-4-yl)-N-(4-nitrophenethyl)-propanamide]	282.4 (266.5 to 299.5) %	–
N[C@H](Cc1c[nH]cn1)C(=O)NCCc1ccc([N+](=O)[O-])cc1 [Compound 4p, (R)-2-Amino-3-(1H-imidazol-4-yl)-N-(4-nitrophenethyl)-propanamide]	267.5 (250.1 to 287.1) %	–
N[C@@H](Cc1c[nH]cn1)C(=O)NCCc1ccc(-c2ccccc2)cc1 [Compound 4q, (S)-N-(2-([1,1′-Biphenyl]-4-yl)ethyl)-2-amino-3-(1H-imidazol-4-yl)propanamide]	258.2 (244 to 273.4) %	–
N[C@H](Cc1c[nH]cn1)C(=O)NCCc1ccc(-c2ccccc2)cc1 [Compound 4r, (R)-N-(2-([1,1′-biphenyl]-4-yl)ethyl)-2-amino-3-(1H-imidazol-4-yl)propanamide]	269.7 (256.8 to 283.4) %	–
N[C@@H](Cc1c[nH]cn1)C(=O)NCc1ccccc1 [Compound 5a, (S)-2-Amino-N-benzyl-3-(1H-imidazol-4-yl)propanamide]	152.2 (137.3 to 171.5) %	–
COc1ccc(CNC(=O)[C@@H](N)Cc2c[nH]cn2)cc1 [Compound 5b, (S)-2-Amino-3-(1H-3l4-imidazol-4-yl)-N-(4-methoxybenzyl)-propanamide]	428.8 (373 to 523.5) %	–
COc1ccc(CNC(=O)[C@H](N)Cc2cnc[nH]2)cc1 [Compound 5c, (R)-2-Amino-3-(1H-imidazol-4-yl)-N-(4-methoxybenzyl)-propanamide]	703.5 (588.9 to 915.6) %	–
COc1ccccc1CNC(=O)[C@@H](N)Cc1c[nH]cn1 [Compound 5d, (S)-2-Amino-3-(1H-3l4-imidazol-4-yl)-N-(2-methoxybenzyl)-propanamide]	385.8 (363.8 to 410.5) %	–
COc1ccccc1CNC(=O)[C@H](N)Cc1c[nH]cn1 [Compound 5e, (R)-2-Amino-3-(1H-3l4-imidazol-4-yl)-N-(2-methoxybenzyl)-propanamide]	324.9 (304 to 349) %	–
COc1cccc(CNC(=O)[C@@H](N)Cc2c[nH]cn2)c1 [Compound 5f, (S)-2-Amino-3-(1H-3l4-imidazol-4-yl)-N-(3-methoxybenzyl)-propanamide]	327.5 (309.7 to 348.2) %	–
COc1cccc(CNC(=O)[C@H](N)Cc2cnc[nH]2)c1 [Compound 5g, (R)-2-Amino-3-(1H-3l4-imidazol-4-yl)-N-(3-methoxybenzyl)-propanamide]	477.1 (444 to 516) %	–
N[C@H](Cc1c[nH]cn1)C(=O)NCc1ccc(C(F)(F)F)cc1 [Compound 5i, (R)-2-Amino-3-(1H-imidazol-4-yl)-N-(4-(trifluoromethyl)benzyl)-propanamide]	319.1 (296.3 to 344.3) %	–
N[C@H](Cc1c[nH]cn1)C(=O)NCc1ccccc1C(F)(F)F [Compound 5k, (R)-2-Amino-3-(1H-imidazol-4-yl)-N-(2-(trifluoromethyl)benzyl)-propanamide]	345.8 (317.5 to 378.3) %	–
N[C@H](Cc1c[nH]cn1)C(=O)NCc1cccc(C(F)(F)F)c1 [Compound 5m, (R)-2-Amino-3-(1H-imidazol-4-yl)-N-(3-(trifluoromethyl)benzyl)-propanamide]	282 (258.4 to 309.1) %	–
N[C@@H](Cc1c[nH]cn1)C(=O)NCc1ccc(F)cc1 [Compound 5n, (S)-2-Amino-N-(4-fluorobenzyl)-3-(1H-imidazol-4-yl)-propanamide]	293 (276.5–310.7) %	–
N[C@H](Cc1c[nH]cn1)C(=O)NCc1ccc(F)cc1 [Compound 5o, (R)-2-Amino-N-(4-fluorobenzyl)-3-(1H-imidazol-4-yl)-propanamide]	320.5 (299.7 to 343.9) %	–
N[C@@H](Cc1c[nH]cn1)C(=O)NCc1ccc(OC(F)(F)F)cc1 [Compound 5p, (S)-2-Amino-3-(1H-imidazol-4-yl)-N-(4-(trifluoromethoxy)-benzyl)propanamide]	310 (287.2 to 336.1) %	–

Same assay, conditions: 100% = normal enzyme turnover; mean of n = 4, 95% CI in parentheses

SMILES	Amax, maximum % activation achieved (95% CI)
NC(Cc1c[nH]cn1)C(=O)NCCc1c[nH]c2ccccc12 (racemic) [(rac)-9a, (rac)-N-(2-(1H-Indol-3-yl)ethyl)-2-amino-3-(1H-imidazol-4-yl)-propanamide]	197 (177.5 to 222.8) %
CC(C)(C)OC(=O)N[C@@H](Cc1ccc(O)cc1)C(=O)N[C@H](Cc1ccccc1)C(=O)O [Compound 4b] (Boc-Tyr-[dF]-OH)	Inactive
N[C@@H](Cc1c[nH]cn1)C(=O)NCCc1ccccc1 [Compound 4c, (S)-2-Amino-3-(1H-imidazol-4-yl)-N-phenethylpropanamide]	337.2 (302 to 378.6) %
N[C@H](Cc1c[nH]cn1)C(=O)NCCc1ccccc1 [Compound 4d, (R)-2-Amino-3-(1H-imidazol-4-yl)-N-phenethylpropanamide]	294.6 (278.0 to 313) %
COc1ccc(CCNC(=O)[C@@H](N)Cc2c[nH]cn2)cc1 [Compound 4e, (S)-2-Amino-3-(1H-imidazol-4-yl)-N-(4-methoxyphenethyl)-propanamide]	339.4 (314.2 to 369.3) %
COc1ccc(CCNC(=O)[C@H](N)Cc2c[nH]cn2)cc1 [Compound 4f, (R)-2-Amino-3-(1H-imidazol-4-yl)-N-(4-methoxyphenethyl)-propanamide]	378.3 (350.5 to 411.9) %
COc1cccc(CCNC(=O)[C@H](N)Cc2c[nH]cn2)c1 [Compound 4j, (R)-2-Amino-3-(1H-imidazol-4-yl)-N-(3-methoxyphenethyl)-propanamide]	255.3 (230.5 to 284.8) %

Same assay, conditions: recombinant rat Nln, QFS 15 μM, 37 °C; mean of n = 4, 95% CI in parentheses

SMILES	A50, half maximal activation concentration (95% CI)
CC(C)(C)OC(=O)N[C@@H](Cc1ccc(O)cc1)C(=O)N[C@H](Cc1ccccc1)C(=O)O [Compound 4b] (Boc-Tyr-[dF]-OH)	Inactive
